Assay results published in PMC11571207, “Stereorandomized Oncocins with Preserved Ribosome Binding and Antibacterial Activity” (Journal of Medicinal Chemistry, 2024).
Non-standard residues stand in square brackets, D forms with d. Residues, ends and D or L forms follow the SMILES beside them. Orn = NCCC[C@H](N)C(=O)O

How the values were obtained:
[1] = 25% (v/v) human serum in 0.1 M TRIS buffer pH 7.4, peptide 200 μM, 37 °C, 0/24/48/72 h, LC-MS UV trace vs 4-hydroxybenzoic acid internal standard, n = 3
Protocol: Human serum was diluted in 0.1 M filtered TRIS buffer pH 7.4 (50%, 1:1, v/v). Selected peptides were diluted in 0.1 M filtered TRIS buffer pH 7.4 to a concentration of 400 μM and 0.1 mg/mL 4- hydroxybenzoic acid was added as internal standard. Aliquots of peptide solution (300 μL) were added to aliquots of serum (300 μL) in sterile 1.5 mL Eppendorf tubes, to reach a peptide concentration of 200 μM and 25% (v/v) human serum during the assay. Samples, in triplicate, were incubated at 37 °C under gentle stirri ng (200 rpm). At different time points (0, 24, 48 and 72 hours), 100 μL of each sample was collected and quenched by precipitating serum proteins through the addition of (0.1 M) ZnSO4·7 H2O / ACN (1:1) (0.1 M, 100 μL) and cooling in ice bath for 10 minutes. Protein precipitates were pelleted under centrifugation (5 min at 14’000 rpm) and the supernatants were analysed by LC-MS. Peaks corresponding to the internal standard and the undegraded peptides were integrated from the area under the curves (AUC) of UV traces, with the ratio peptide/standard at t = 0 h as 100%.
Figure S7. Serum stability assay of the respective compound (200 μM), incubated with human serum (25% in TRIS buffer, 0.1 M, pH 7.4) at 37 °C. Aliquots were taken at different time (0 / 24 / 48 and 72 h). Undegraded peptide values determined by RP -HPLC analysis usi ng hydroxybenzoic acid as internal standard. Measured in triplicates and the data represent mean ± SD, n […]
(1 picture or pasted object on this page, not shown here)

human red blood cells = settings: red cells of human, 6 h
[2] = target: chaperone DnaK (His-tagged) (UniProt P0A6Y8); experiment: MST; 16 two-fold dilutions of L-Onc from a maximum of 100 μM, mixed 1:1 with 40 nM His-Tag-labeled DnaK; MST buffer (50 mM TRIS, 150 mM NaCl, 10 mM MgCl2, Tween 20 0.05%); Monolith NT.115; apparent
chaperone DnaK (His-tagged), sequence (P0A6Y8 whole entry): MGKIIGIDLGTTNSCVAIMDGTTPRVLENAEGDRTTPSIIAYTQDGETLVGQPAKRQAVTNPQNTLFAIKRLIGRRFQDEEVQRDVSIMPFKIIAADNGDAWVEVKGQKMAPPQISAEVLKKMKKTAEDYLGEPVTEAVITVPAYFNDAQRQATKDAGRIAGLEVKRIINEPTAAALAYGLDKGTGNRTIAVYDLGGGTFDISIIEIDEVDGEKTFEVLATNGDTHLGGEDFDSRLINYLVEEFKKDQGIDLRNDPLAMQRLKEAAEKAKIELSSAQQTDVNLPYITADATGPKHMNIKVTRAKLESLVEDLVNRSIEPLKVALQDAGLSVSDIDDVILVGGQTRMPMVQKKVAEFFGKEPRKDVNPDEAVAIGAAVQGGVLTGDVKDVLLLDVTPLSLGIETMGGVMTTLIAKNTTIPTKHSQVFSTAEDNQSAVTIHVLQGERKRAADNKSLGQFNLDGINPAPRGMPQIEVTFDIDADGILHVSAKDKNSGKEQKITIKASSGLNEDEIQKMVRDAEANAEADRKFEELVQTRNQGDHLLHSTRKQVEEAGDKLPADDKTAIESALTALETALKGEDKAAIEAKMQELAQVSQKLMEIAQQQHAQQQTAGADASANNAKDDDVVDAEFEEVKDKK

Row | Compound | Serum stability (undegraded peptide) [1] | MHC human red blood cells (human red blood cells) | Kd [2]
1 | CC[C@H](C)[C@H](NC(=O)[C@H](CCCN)NC(=O)[C@H](CCCNC(=N)N)NC(=O)[C@@H]1CCCN1C(=O)[C@@H]1CCCN1C(=O)[C@H](CCCNC(=N)N)NC(=O)[C@@H]1CCCN1C(=O)[C@H](CCCNC(=N)N)NC(=O)[C@@H]1CCCN1C(=O)[C@H](CC(C)C)NC(=O)[C@H](Cc1ccc(O)cc1)NC(=O)[C@@H]1CCCN1C(=O)[C@@H]1CCCN1C(=O)[C@H](CCCCN)NC(=O)[C@H](CC(=O)O)NC(=O)[C@@H](N)C(C)C)C(=O)N[C@@H](Cc1ccc(O)cc1)C(=O)N[C@@H](CC(N)=O)C(=O)N[C@@H](CCCN)C(N)=O [Onc72] (H-VDKPPYLPRPRPPR[Orn]IYN[Orn]-NH2) | essentially stable to degradation over 24 h | >1000 µg/mL | –
2 | oncocin (L-oncocin) (peptide) | – | – | 30 µM
